Experimental data published in patent publication US20090143279A1 (priority 2007, published 2009).
Values joined by “and” are separate entries in the source; they are usually repeats but may differ in a detail not shown here. Equal entries are not always repeated. Structures can show the parent of a compound that is named as a salt. Where a SMILES comes first, the peptide text is derived from it.

The compounds below were run on cytochrome c. Settings: not given.
Type: cell-based, mouse
`CC(=C(CCO)SSCC1CCCO1)N(C=O)Cc1cnc(C)nc1N` (stereo in doubt) [fursultiamine] gave a cyt c of 0.477. Work on `NC1(C(=O)O)CCC1` [1-aminocyclobutane carboxylic acid] yielded a cyt c of −0.335. In the case of `Cc1cc(O)cc(=O)o1` [4-hydroxy-6-methylpyran-2-one], the cyt c is reported as −0.316. For `NCCCCCC(=O)O` [6-aminocaproic acid], the “cyt c (composite Z-score vs DMSO mock-treated wells)” value was −0.680. `Cc1n[nH]c(=O)[nH]c1=O` [6-azathymine] showed a cyt c of 0.583. In the case of `Nc1c2c(nc3ccccc13)CCCC2` [9-amino-1,2,3,4-tetrahydroacridine], the “cyt c (composite Z-score vs DMSO)” value is reported as 0.967. For `CC(=O)N[C@@H](CC(C)C)C(=O)O` [N-acetyl-L-leucine], the cyt c was 0.648. In the case of `CNc1ccccc1C(=O)O` [N-methylanthranilic acid], the cyt c is reported as 0.299. With `CC(=O)Nc1ccccc1` [acetanilide] the “cyt c (composite Z-score vs DMSO)” value was 0.532. With `CC(=O)Nc1nnc(S(N)(=O)=O)s1` [acetazolamide] the “cyt c (composite Z-score vs DMSO)” value was 0.698 and 0.613. With `NCCCCCC(=O)O` [aminocaproic acid] the “cyt c (composite Z-score vs DMSO mock-treated wells)” value was 0.280. `NC1(C(=O)O)CC1` [aminocyclopropanecarboxylic acid] was tested, and the “cyt c (composite Z-score vs DMSO)” value was 0.213. With `Cn1c(=O)c2[nH]cnc2n(C)c1=O` [aminophylline] the “cyt c (composite Z-score vs DMSO)” value was 0.177. In the case of `CC(C)NCC(O)COc1ccc(CC(N)=O)cc1` (centres unmarked) [atenolol, reference compound], the “cyt c (composite Z-score vs DMSO)” value is reported as 0.403. Compound `CC(C)c1c(C(=O)Nc2ccccc2)c(-c2ccccc2)c(-c2ccc(F)cc2)n1CC[C@@H](O)C[C@@H](O)CC(=O)O` [atorvastatin, reference compound] has a cyt c of −1.023. For `CN1[C@@H]2CC[C@H]1C[C@@H](OC(=O)C(CO)c1ccccc1)C2` (some centres unmarked) [atropine sulfate], the cyt c was 0.071. `CN1[C@@H]2CC[C@H]1C[C@@H](OC(=O)C(CO)c1ccccc1)C2` (some centres unmarked) [atropine] gave a cyt c of 1.709. Compound `CCCC1C(=O)N2C(N(C)C)=Nc3ccc(C)cc3N2C1=O` (centres unmarked) [azapropazone] has a cyt c of 0.418. For `CN1[C@@H]2CC[C@H]1C[C@@H](OC(c1ccccc1)c1ccccc1)C2` [benztropine], the “cyt c (composite Z-score vs DMSO mock-treated wells)” value was −1.170. For `O=C(OCc1ccccc1)c1ccccc1` [benzyl benzoate], the “cyt c (composite Z-score vs DMSO)” value was 0.394. `CC1=C(/C=C/C(C)=C/C=C/C(C)=C/C=C/C=C(C)/C=C/C=C(C)/C=C/C2=C(C)CCCC2(C)C)C(C)(C)CCC1` [beta-carotene] showed a cyt c of 0.027. Compound `CC(C)NCC(O)COc1ccc(CCOCC2CC2)cc1` (centres unmarked) [betaxolol] has a cyt c of 0.064. For `c1ccc(-c2ccc(C(c3ccccc3)n3ccnc3)cc2)cc1` (centres unmarked) [bifonazole], the cyt c was 0.179. `CC[N+](C)(C)Cc1ccccc1Br` [bretylium] was tested, and the cyt c was 0.560 and the “cyt c (composite Z-score)” value was 0.295. Compound `O=C1CC2(CCCC2)CC(=O)N1CCCCN1CCN(c2ncccn2)CC1` [buspirone] has a cyt c of 0.228. In the case of `Cn1c(=O)c2c(ncn2C)n(C)c1=O` [caffeine], the “cyt c (composite Z-score vs DMSO)” value is reported as 0.292. With `CC1(C)[C@@H](OC(=O)CCC(=O)O)CC[C@]2(C)[C@H]3C(=O)C=C4[C@@H]5C[C@@](C)(C(=O)O)CC[C@]5(C)CC[C@@]4(C)[C@]3(C)CC[C@@H]12` [carbenoxolone] the cyt c was 0.145. Work on `C[C@@H]1CC[C@H]2C(C)(C)[C@H]3C[C@@]12CC[C@@]3(C)O` [cedrol] yielded a cyt c of −0.218. `O=C(O)COCCN1CCN(C(c2ccccc2)c2ccc(Cl)cc2)CC1` (centres unmarked) [cetirizine] was tested, and the cyt c was 0.507. In the case of `CC(C)CCC[C@@H](C)[C@H]1CC[C@H]2[C@@H]3CC=C4CC(=O)CC[C@]4(C)[C@H]3CC[C@]12C` [cholest-5-en-3-one], the cyt c is reported as 0.600. `C[C@H](CCC(=O)O)[C@H]1CC[C@H]2[C@@H]3[C@H](O)C[C@@H]4C[C@H](O)CC[C@]4(C)[C@H]3C[C@H](O)[C@]12C` [cholic acid] showed a cyt c of 0.514. In the case of `C[N+](C)(C)CCO` [choline], the “cyt c (composite Z-score vs DMSO)” value is reported as 0.713. With `CN/C(=N/CCSCc1nc[nH]c1C)NC#N` [cimetidine] the cyt c was 0.794 and 0.587. For `CCN(CC)CCOc1ccc(C(=C(Cl)c2ccccc2)c2ccccc2)cc1` [clomiphene], the cyt c was 0.699 and the “cyt c (composite Z-score vs DMSO mock-treated wells)” value was 0.025. Compound `Nc1cc(C(Cl)=C(Cl)Cl)c(S(N)(=O)=O)cc1S(N)(=O)=O` [clorsulon] has a cyt c of −0.186. With `C[C@]12C[C@H](O)[C@H]3[C@@H](CCC4=CC(=O)CC[C@@]43C)[C@@H]1CC[C@@H]2C(=O)CO` [corticosterone] the cyt c was −0.379. In the case of `CC1(C)S[C@@H]2[C@H](NC(=O)C3(N)CCCCC3)C(=O)N2[C@H]1C(=O)O` [cyclacillin], the “cyt c (composite Z-score)” value is reported as −0.886. In the case of `O=P1(N(CCCl)CCCl)NCCCO1` (centres unmarked) [cyclophosphamide], the cyt c is reported as −0.088.

Same assay, conditions: composite Z-score vs mock-treated (DMSO) wells; concentration of each compound in μM
With `NCC(CC(=O)O)c1ccc(Cl)s1` (centres unmarked) [4-amino-3-(5-chlorothien-2-yl)butanoic acid] the cyt c was 0.593. Work on `COc1ccc(-c2cc(=O)c3c(OC)cc(O)cc3o2)cc1` [5,4′-dimethoxy-7-hydroxyflavone] yielded a cyt c of 0.173. With `CC(=O)N[C@@H](CC(=O)O)C(=O)N[C@@H](CCC(=O)O)C(=O)O` [N-acetylaspartylglutamic acid] (Ac-Asp-Glu-OH) the cyt c was 0.480. For `N[C@@H](Cc1c[nH]cn1)C(=O)Nc1ccc2ccccc2c1` [N-histidyl-2-aminonaphthalene], the cyt c was 0.214. `CCOC(=O)C1=C(COCCN)NC(C)=C(C(=O)OC)C1c1ccccc1Cl` (centres unmarked) [amlodipine] was tested, and the cyt c was 0.902. `O=C1C(O)=C([C@H]2CC[C@H](c3ccc(Cl)cc3)CC2)C(=O)c2ccccc21` [atovaquone] was tested, and the cyt c was −0.124. With `COc1ccc(CC2c3cc(OC)c(OC)cc3CC[N+]2(C)CCC(=O)OCCCCCOC(=O)CC[N+]2(C)CCc3cc(OC)c(OC)cc3C2Cc2ccc(OC)c(OC)c2)cc1OC` (centres unmarked) [atracurium] the cyt c was 1.176. `CN1CCCC(n2nc(Cc3ccc(Cl)cc3)c3ccccc3c2=O)CC1` (centres unmarked) [azelastine] was tested, and the cyt c was 0.054. In the case of `COc1c(O)cc2c(c1O)[C@@H]1O[C@H](CO)[C@@H](O)[C@H](O)[C@H]1OC2=O` [bergenin], the cyt c is reported as 0.831. With `N=C(N)NOCC[C@H](N)C(=O)O` [canavanine] the cyt c was −0.321. For `C[C@]12CCC(=O)C=C1C=C[C@@H]1[C@@H]2CC[C@@]2(C)[C@H]1CC[C@@]21CCC(=O)O1` [canrenone], the cyt c was 0.816. With `COc1ccccc1OCCNCC(O)COc1cccc2[nH]c3ccccc3c12` (centres unmarked) [carvedilol] the cyt c was −4.745. Compound `NC(=O)c1cc[n+](CC2=C(C(=O)O)N3C(=O)[C@@H](NC(=O)[C@@H](c4ccccc4)S(=O)(=O)[O-])[C@H]3SC2)cc1` [cefsulodin] has a cyt c of −1.078. With `CC(C)(O/N=C(\C(=O)N[C@@H]1C(=O)N2C(C(=O)[O-])=C(C[n+]3ccccc3)CS[C@H]12)c1csc(N)n1)C(=O)O` [ceftazidime] the cyt c was 0.740. In the case of `O=C(Cc1cccs1)N[C@@H]1C(=O)N2C(C(=O)[O-])=C(C[n+]3ccccc3)CS[C@H]12` [cephaloridine], the cyt c is reported as −0.278. `C=C[C@H]1CN2CC[C@H]1C[C@H]2[C@H](O)c1ccnc2ccccc12` [cinchonidine] showed a cyt c of −0.164. In the case of `C[N+](C)(C)CCOP(=O)(O)OP(=O)([O-])OC[C@H]1O[C@@H](n2ccc(N)nc2=O)[C@H](O)[C@@H]1O` [citicoline], the cyt c is reported as 0.322.

Same assay, conditions: normalized score (composite Z-score vs DMSO mock-treated wells); compound concentration (μM)
For `CC(C)NCC(O)COc1ccc(COCCOC(C)C)cc1` (centres unmarked) [bisoprolol], the cyt c was 0.874. In the case of `COc1cc(N)c(Cl)cc1C(=O)NC1CCN(CCCOc2ccc(F)cc2)CC1OC` (centres unmarked) [cisapride], the cyt c is reported as −0.495.
